{"source": "patent US20110189710A1", "about": "“TREATMENT OF POMPE DISEASE WITH […] PHARMACOLOGICAL CHAPERONES AND MONITORING TREATMENT USING SURROGATE MARkERS” (AMICUS THERAPEUTICS, INC., priority 2008, published 2011)", "origin": "cited, not measured here", "key": {"[1]": {"target": "T1, human mutant α-Gal A (R301Q) (Homo sapiens, UniProt P06280, R301Q)", "T1 sequence (P06280 32-429 R301Q)": "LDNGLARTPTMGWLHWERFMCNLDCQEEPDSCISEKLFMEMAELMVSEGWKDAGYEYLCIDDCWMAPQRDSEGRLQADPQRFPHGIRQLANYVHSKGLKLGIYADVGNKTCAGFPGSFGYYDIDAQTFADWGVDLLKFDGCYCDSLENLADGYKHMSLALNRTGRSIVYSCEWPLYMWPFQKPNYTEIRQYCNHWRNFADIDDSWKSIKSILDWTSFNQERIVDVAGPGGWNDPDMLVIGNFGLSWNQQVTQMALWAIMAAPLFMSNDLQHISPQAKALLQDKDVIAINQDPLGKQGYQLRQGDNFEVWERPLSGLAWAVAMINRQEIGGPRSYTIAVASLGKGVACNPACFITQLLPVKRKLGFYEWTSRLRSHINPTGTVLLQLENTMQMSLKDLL", "details": "neutral pH; cited from earlier work"}, "[2]": {"system": "α-Gal A (R301Q or Q279E) in Fabry patient lymphoblasts", "details": "lymphoblasts from Fabry patients with R301Q or Q279E mutations; cited from earlier work"}, "[3]": {"target": "T2, mutant (R301Q) α-Gal A (Homo sapiens, UniProt P06280, R301Q)", "T2 construct": "host or cells: transgenic mice", "T2 sequence (P06280 32-429 R301Q)": "T1 sequence (P06280 32-429 R301Q)", "details": "oral administration; transgenic mice overexpressing mutant (R301Q) α-Gal A; cited from earlier work"}}}
{"smiles": "OC[C@H]1NC[C@H](O)[C@@H](O)[C@H]1O", "note": "[DGJ, 1-deoxygalactonojirimycin]", "values": [{"measurement": "In vitro stability of mutant enzyme", "setting": "[1]", "value": "effectively increased in vitro stability"}, {"measurement": "Mutant enzyme activity in lymphoblasts", "setting": "[2]", "value": "enhanced the mutant enzyme activity"}, {"measurement": "Enzyme activity in major organs", "setting": "[3]", "value": "substantially elevated the enzyme activity"}]}
